Numbered stars: 1 amine (or outer) side, 2 acyl side, 3 side chain; on linkers, the order of the positions; unused ones are H or OH. Bridge positions count the residues as written; N and C are the ends. Square brackets hold non-standard residues; d marks the D form. Peptide text beside a SMILES is read from it. Suc = O=C(CCC(=O)[*:2])[*:1]; Dab = NCC[C@H](N)C(=O)O
What was measured:
hMCR-4 = hMCR-4 (Homo sapiens (Human), UniProt P32245); assay: Competitive inhibition binding assay using [I125]-NDP-α-MSH, hMCR-4; conditions: membrane homogenates of HEK-293 cells, human recombinant receptor, averaged, read-out: MC-4 Ki (average)
Method: A competitive inhibition binding assay was performed using membrane homogenates prepared from HEK-293 cells that express recombinant hMCR-1a or hMCR-4 (in each instance where the h prefix refers to human), or alternatively membrane homogenates from B16-F10 mouse melanoma cells containing endogenous murine MCR-1. In the examples that follow, all MCR-1 and MCR-4 values are for human recombinant receptors, unless otherwise noted. Assays were performed in 96 well polypropylene round-bottom plates (VWR catalog number 12777-030). […] After incubation for 90 minutes at 37° C., the assay mixture was filtered onto GF/B Unifilter plates (Perkin-Elmer catalog number 6005177) and washed with 3 mL of ice-cold buffer per well. Filters were air dried and 35 μL of scintillation cocktail added to each well. Plates were counted in a Microbeta counter for bound radioactivity. […] Each assay was conducted in duplicate and the actual mean values are described, with results less than 0% reported as 0%. Ki values for peptides of the present invention were determined using Graph-Pad Prism® curve-fitting software.
(§1) Peptides of the following structures were synthesized and averaged MCR-1 and MCR-4 Ki values were determined as indicated. […] All results are expressed in nM except for Emax values, which are percentage values. Peptides with the captioned primary sequence were synthesized and purified as described in Section 5 above, with the resulting peptide having the structure depicted.

hMCR-1 = hMCR-1 (Homo sapiens (Human), UniProt Q01726); assay: Assay for agonist activity: intracellular cAMP accumulation in HBL human melanoma cells; type: cell-based; conditions: HBL cells, maximum efficacy compared to reference agonist NDP-α-MSH
Method: Confluent HBL cells that express hMCR-1 or HEK-293 cells that express recombinant hMCR-4 were detached from culture plates by incubation in enzyme-free cell dissociation buffer. Dispersed cells were suspended in Earle's Balanced Salt Solution containing 10 mM HEPES (pH 7.5), 1 mM MgCl2, 1 mM glutamine, 0.5% albumin and 0.3 mM 3-isobutyl-1-methyl-xanthine (IBMX), a phosphodiesterase inhibitor. The cells were plated in 96-well plates at a density of 0.4×10^5 cells per well for HBL cells and 0.5×10^5 cells per well for HEK-293 cells and pre-incubated for 10 minutes. Cells were exposed for 15 minutes at 37° C. to peptides of the present invention dissolved in DMSO (final DMSO concentration of 1%) at a concentration range of 0.05-5000 nM in a total assay volume of 200 μL. […] Data analysis was performed by nonlinear regression analysis with Graph-Pad Prism® software.
as §1

hMCR-4, sequence (P32245 whole entry): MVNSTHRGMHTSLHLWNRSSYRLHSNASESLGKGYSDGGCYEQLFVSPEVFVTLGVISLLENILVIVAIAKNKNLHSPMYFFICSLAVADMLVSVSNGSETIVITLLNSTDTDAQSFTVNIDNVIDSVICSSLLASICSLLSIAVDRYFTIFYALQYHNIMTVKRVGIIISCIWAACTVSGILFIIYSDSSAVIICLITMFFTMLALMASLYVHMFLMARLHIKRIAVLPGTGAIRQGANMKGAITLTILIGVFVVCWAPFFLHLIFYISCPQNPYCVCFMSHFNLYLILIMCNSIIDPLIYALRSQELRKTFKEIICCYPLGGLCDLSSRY
hMCR-1, sequence (Q01726 whole entry): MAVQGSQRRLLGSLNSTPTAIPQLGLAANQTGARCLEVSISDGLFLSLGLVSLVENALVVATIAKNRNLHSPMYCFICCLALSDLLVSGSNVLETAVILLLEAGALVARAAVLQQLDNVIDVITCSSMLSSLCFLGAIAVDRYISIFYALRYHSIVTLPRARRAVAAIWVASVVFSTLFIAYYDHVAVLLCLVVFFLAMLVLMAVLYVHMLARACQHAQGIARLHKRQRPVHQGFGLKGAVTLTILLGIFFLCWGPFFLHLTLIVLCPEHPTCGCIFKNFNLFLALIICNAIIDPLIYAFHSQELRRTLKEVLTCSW

| SMILES | Ki (hMCR-4) | MC-1 Emax (average; cAMP HBL) (hMCR-1) |
| --- | --- | --- |
| CCCC[C@H](NC(C)=O)C(=O)N[C@H]1CCC(=O)NCCCC[C@@H](C(=O)N[C@@H](Cc2c[nH]c3ccccc23)C(N)=O)NC(=O)[C@H](CCCNC(=N)N)NC(=O)[C@@H](Cc2ccccc2)NC(=O)[C@H](Cc2c[nH]cn2)NC1=O [Example 9.1, Ac-Nle-cyclo(Glu-His-D-Phe-Arg-Lys)-Trp-NH2] | 45 nM | – |
| CCCC[C@H](NC(C)=O)C(=O)N[C@H]1CCC(=O)NCC[C@@H](C(N)=O)NC(=O)[C@H](CCCNC(=N)N)NC(=O)[C@@H](Cc2ccccc2)NC(=O)[C@@H]2CCCN2C1=O [Example 9.65, Ac-Nle-cyclo(Glu-Pro-D-Phe-Arg-Dab)-NH2] | 10000 nM | – |
| CCCC[C@H](NC(C)=O)C(=O)N[C@H]1CCNC(=O)CCC(=O)NC[C@@H](C(=O)N[C@@H](Cc2c[nH]c3ccccc23)C(N)=O)NC(=O)[C@H](CCCNC(=N)N)NC(=O)[C@@H](Cc2ccccc2)NC(=O)[C@H](Cc2c[nH]cn2)NC1=O [Example 9.29] | 325 nM | – |
| CC(=O)N[C@H](Cc1ccccc1)C(=O)N[C@H]1CCC(=O)NCC[C@@H](C(=O)N[C@@H](Cc2c[nH]c3ccccc23)C(N)=O)NC(=O)[C@H](CCCNC(=N)N)NC(=O)[C@@H](Cc2ccccc2)NC(=O)[C@H](Cc2c[nH]cn2)NC1=O [Example 9.12, Ac-D-Phe-cyclo(Glu-His-D-Phe-Arg-Dab)-Trp-NH2] | 535 nM | – |
| CCCC[C@H](NC(C)=O)C(=O)N[C@H]1CCC(=O)NCC[C@@H](C(=O)N[C@@H](Cc2cccc3ccccc23)C(N)=O)NC(=O)[C@H](CCCNC(=N)N)NC(=O)[C@@H](Cc2ccccc2)NC(=O)[C@H](Cc2c[nH]cn2)NC1=O [Example 9.30, Ac-Nle-cyclo(Glu-His-D-Phe-Arg-Dab)-Nal 1-NH2] | 0.75 nM | – |
| N=C(N)NCCC[C@@H]1NC(=O)[C@@H](Cc2ccccc2)NC(=O)[C@H](Cc2c[nH]cn2)NC(=O)CCC(=O)NCC[C@@H](C(=O)N[C@@H](Cc2c[nH]c3ccccc23)C(N)=O)NC1=O [Example 9.14, cyclo(Suc-His-Phe-Arg-Dab)-Trp-NH2] (H[dF]R[Dab]W-NH2; linker N-4 via Suc) | 10000 nM | – |
| CCCC[C@H](NC(C)=O)C(=O)N[C@H]1CCC(=O)NCC[C@@H](C(=O)N[C@H](Cc2ccc3ccccc3c2)C(N)=O)NC(=O)[C@H](CCCNC(=N)N)NC(=O)[C@@H](Cc2ccccc2)NC(=O)[C@H](Cc2c[nH]cn2)NC1=O [Example 9.11, Ac-Nle-cyclo(Glu-His-D-Phe-Arg-Dab)-D-Nal 2-NH2] | 0.095 nM | – |
| CCCCCC(=O)N[C@H]1CCC(=O)NCC[C@@H](C(=O)N[C@@H](Cc2c[nH]c3ccccc23)C(N)=O)NC(=O)[C@H](CCCNC(=N)N)NC(=O)[C@@H](Cc2ccccc2)NC(=O)[C@H](Cc2c[nH]cn2)NC1=O [Example 9.17, CH3—(CH2)4—C(═O)-cyclo(Glu-His-D-Phe-Arg-Dab)-Trp-NH2] | 110 nM | – |
| CCCC[C@H](NC(C)=O)C(=O)N[C@H]1CCC(=O)NC[C@@H](C(=O)N[C@@H](Cc2c[nH]c3ccccc23)C(N)=O)NC(=O)[C@H](CCCNC(=N)N)NC(=O)[C@@H](Cc2ccccc2)NC(=O)[C@H](Cc2c[nH]cn2)NC1=O [Example 9.3, Ac-Nle-cyclo(Glu-His-D-Phe-Arg-Dap)-Trp-NH2] | 358 nM | – |
| CCCC[C@H](NC(C)=O)C(=O)N[C@H]1CCC(=O)NCC[C@@H](C(=O)N[C@@H](Cc2ccc3ccccc3c2)C(N)=O)NC(=O)[C@H](CCCNC(=N)N)NC(=O)[C@@H](Cc2ccccc2)NC(=O)[C@H](Cc2c[nH]cn2)NC1=O [Example 9.10, Ac-Nle-cyclo(Glu-His-D-Phe-Arg-Dab)-Nal 2-NH2] | 3 nM | – |
| CCCC[C@H](NC(C)=O)C(=O)N[C@H]1CCNC(=O)CCC(=O)NCC[C@@H](C(=O)N[C@@H](Cc2c[nH]c3ccccc23)C(N)=O)NC(=O)[C@H](CCCNC(=N)N)NC(=O)[C@@H](Cc2ccccc2)NC(=O)[C@H](Cc2c[nH]cn2)NC1=O [Example 9.27] | 380 nM | – |
| CCCC[C@H](NC(C)=O)C(=O)N[C@H]1CCC(=O)NCC[C@@H](C(=O)N[C@H](Cc2cccc3ccccc23)C(N)=O)NC(=O)[C@H](CCCNC(=N)N)NC(=O)[C@@H](Cc2ccccc2)NC(=O)[C@H](Cc2c[nH]cn2)NC1=O [Example 9.9, Ac-Nle-cyclo(Glu-His-D-Phe-Arg-Dab)-D-Nal 1-NH2] | 2 nM | – |
| CCCC[C@H](NC(C)=O)C(=O)N[C@H]1CNC(=O)CCC(=O)NC[C@@H](C(=O)N[C@@H](Cc2c[nH]c3ccccc23)C(N)=O)NC(=O)[C@H](CCCNC(=N)N)NC(=O)[C@@H](Cc2ccccc2)NC(=O)[C@H](Cc2c[nH]cn2)NC1=O [Example 9.28] | 680 nM | – |

The remaining lines, values ahead:

| Ki (hMCR-4) | MC-1 Emax (average; cAMP HBL) (hMCR-1) | SMILES |
| --- | --- | --- |
| 45 nM | – | CCCC[C@H](NC(C)=O)C(=O)N[C@H]1CCC(=O)NCC[C@@H](C(=O)N[C@@H](Cc2c[nH]c3ccccc23)C(N)=O)NC(=O)[C@H](CCCNC(=N)N)NC(=O)[C@@H](Cc2ccccc2)NC(=O)[C@H](CCCN)NC1=O [Example 9.42, Ac-Nle-cyclo(Glu-Orn-D-Phe-Arg-Dab)-Trp-NH2] |
| 98 nM | – | CCCC[C@H](NC(C)=O)C(=O)N[C@H]1CCC(=O)NCC[C@@H](C(=O)N[C@@H](Cc2c[nH]c3ccccc23)C(N)=O)NC(=O)[C@H](CCCNC(=N)N)NC(=O)[C@@H](Cc2ccccc2)NC(=O)[C@H](CCN)NC1=O [Example 9.41, Ac-Nle-cyclo(Glu-Dab-D-Phe-Arg-Dab)-Trp-NH2] |
| – | 97% ^ | CCCC[C@H](NC(C)=O)C(=O)N[C@H]1CCC(=O)NCC[C@@H](C(=O)N[C@@H](Cc2c[nH]c3ccccc23)C(N)=O)NC(=O)[C@H](CCCNC(=N)N)NC(=O)[C@@H](Cc2ccccc2)NC(=O)[C@H](CCCNC(N)=O)NC1=O [Example 9.51, Ac-Nle-cyclo(Glu-Cit-D-Phe-Arg-Dab)-Trp-NH2] |
| 33 nM | – | CCCC[C@H](NC(C)=O)C(=O)N[C@H]1CCC(=O)NCC[C@@H](C(=O)N[C@H](Cc2c[nH]c3ccccc23)C(N)=O)NC(=O)[C@H](CCCNC(=N)N)NC(=O)[C@@H](Cc2ccccc2)NC(=O)[C@H](Cc2c[nH]cn2)NC1=O [Example 9.7, Ac-Nle-cyclo(Glu-His-D-Phe-Arg-Dab)-D-Trp-NH2] |
| 10000 nM | – | CCCC[C@H](NC(C)=O)C(=O)N[C@H]1CCC(=O)NCC[C@@H](C(=O)N[C@@H](Cc2c[nH]c3ccccc23)C(N)=O)NC(=O)[C@H](CCCNC(=N)N)NC(=O)[C@H](Cc2ccccc2)NC(=O)[C@H](Cc2c[nH]cn2)NC1=O [Example 9.8, Ac-Nle-cyclo(Glu-His-Phe-Arg-Dab)-Trp-NH2] |
| 95 nM | – | CCCC[C@H](NC(C)=O)C(=O)N[C@H]1CCC(=O)NCC[C@@H](C(=O)N[C@@H](Cc2c[nH]c3ccccc23)C(N)=O)NC(=O)[C@H](CCCNC(=N)N)NC(=O)[C@@H](Cc2ccccc2)NC(=O)[C@H](CCCCN)NC1=O [Example 9.40, Ac-Nle-cyclo(Glu-Lys-D-Phe-Arg-Dab)-Trp-NH2] |
| 110 nM | – | CCCC[C@H](NC(C)=O)C(=O)N[C@H]1CCC(=O)NCC[C@@H](C(=O)N[C@@H](Cc2c[nH]c3ccccc23)C(N)=O)NC(=O)[C@H](CCCNC(=N)N)NC(=O)[C@@H](Cc2ccccc2)NC(=O)[C@H](Cc2c[nH]cn2)NC1=O [Example 9.2, Ac-Nle-cyclo(Glu-His-D-Phe-Arg-Dab)-Trp-NH2] |
| 295 nM | – | CCCC[C@H](NC(C)=O)C(=O)N[C@H]1CCC(=O)NCCC[C@@H](C(=O)N[C@@H](Cc2c[nH]c3ccccc23)C(N)=O)NC(=O)[C@H](CCCNC(=N)N)NC(=O)[C@@H](Cc2ccccc2)NC(=O)[C@H](Cc2c[nH]cn2)NC1=O [Example 9.6, Ac-Nle-cyclo(Glu-His-D-Phe-Arg-Orn)-Trp-NH2] |
| 98 nM | – | CCCC[C@H](NC(C)=O)C(=O)N[C@H]1CCC(=O)NCC[C@@H](C(=O)N[C@@H](Cc2c[nH]c3ccccc23)C(N)=O)NC(=O)[C@H](CCCNC(=N)N)NC(=O)[C@@H](Cc2ccccc2)NC(=O)[C@H](CCCNC(N)=O)NC1=O [Example 9.38, Ac-Nle-cyclo(Glu-Cit-D-Phe-Arg-Dab)-Trp-NH2] |
| 455 nM | – | CCCC[C@H](NC(C)=O)C(=O)N[C@H]1CCC(=O)NCC[C@@H](C(=O)N[C@@H](Cc2c[nH]c3ccccc23)C(N)=O)NC(=O)[C@H](CCCNC(=N)N)NC(=O)[C@@H](Cc2ccccc2)NC(=O)[C@H](C)NC1=O [Example 9.36, Ac-Nle-cyclo(Glu-Ala-D-Phe-Arg-Dab)-Trp-NH2] |
| 20 nM | – | CCCC[C@H](NC(C)=O)C(=O)N[C@H]1CCC(=O)NCC[C@@H](C(=O)N[C@@H](Cc2c[nH]c3ccccc23)C(N)=O)NC(=O)[C@H](CCCNC(=N)N)NC(=O)[C@@H](Cc2ccccc2)NC(=O)[C@H](CCCNC(=N)N)NC1=O [Example 9.37, Ac-Nle-cyclo(Glu-Arg-D-Phe-Arg-Dab)-Trp-NH2] |
